Assay in all cases: NCI-60 cell line screen, 48 h
Test [1] relates to 786-0 renal.
Test [2] concerns MDA-MB-231 breast.
In test [3] the test system is NCI-H226 lung.
Test [4] has as its system UACC-62 melanoma.
For test [5], the system named is SK-OV-3 ovarian.
The subject of test [6] is MOLT-4 leukemia.
Test [7] concerns UACC-257 melanoma.
In test [8] the test system is NCI-H460 lung.
The subject of test [9] is COLO 205 colon.
The test system of test [10] is HOP-62 NSCLC.

Where “and” joins values, the source holds several entries; their conditions need not be identical. Equal entries are not always repeated.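 Where inhibition never reached the appropriate level, the endpoint shown equals the highest concentration tested. Otherwise, values were interpolated linearly from a five-concentration, 48-hour dose response in 96-well plates. GI50: concentration for 50% inhibition of growth. TGI is the concentration that stops growth completely.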 Some results are limits rather than exact numbers.

For the molecule `O=c1ccn(C2CC(O)C(CO)O2)c(=O)[nH]1` (stereo not given), the GI50 in [1] is > 5000 µM; in test [2] it was > 5000 µM; in test [3], > 5000 µM; in test [4], > 5000 µM; in [5] it was > 5000 µM; in [6] it was 548 µM and 227 µM. In addition, the GI50 in test [7], in test [8], in [9] and in test [10] was > 5000 µM in each case. Moreover, the TGI in [1], in [2], in [3], in test [4], in test [5] and in test [6] was > 5000 µM each time. For the same molecule, the TGI in [7], in [8], in [9] and in [10] was > 5000 µM in each case.
Take `O=[N+]([O-])c1ccc2c(c1)Cc1cc(N=Cc3ccc4c(c3)OCO4)ccc1-2`: the TGI in [1], in test [2], in test [3], in test [4], in [5] and in test [6] was > 100 µM throughout. The TGI in test [7], in [8], in test [9] and in test [10] was > 100 µM each time.
Take `COc1cccc(-n2nc(C)c3c(N/N=C(\C)c4ccncc4)ncnc32)c1`: the GI50 was > 25 µM in test [1]; 8.4 µM in [2]; > 8.39 µM in [3]; > 25 µM in test [4]; 13.4 µM in test [5]; > 25 µM in test [6]. For the same molecule, the GI50 in test [7], in test [8], in test [9] and in test [10] was > 25 µM in each case. For the same molecule, the TGI in test [1], in [2], in [3], in test [4], in test [5] and in test [6] was > 25 µM throughout. Besides, the TGI in test [7], in test [8], in test [9] and in test [10] was > 25 µM throughout.
As to `COc1cccc2c1C(=O)c1c(O)c3c(c(O)c1C2=O)CC(O)(C(O)CO)CC3OC1CC(N2CCOCC2)C(O)C(C)O1` (stereo not given), the GI50 in test [1] was < 0.001 µM; in test [3] it was < 0.001 µM; in test [5], 0.0579 µM; in test [6], 0.0097 µM and 0.0243 µM; in test [7] it was 0.0199 µM; in test [9], 0.0278 µM. Moreover, in [10], the GI50 is 0.0262 µM. Further, the TGI is 0.148 µM and 0.0989 µM in test [1]; 0.243 µM in test [2]; 0.205 µM and 0.185 µM in [6]; 0.013 µM and 0.0424 µM in test [7]; 0.0566 µM and 0.081 µM in [10].
In the case of `O=C(Nc1cccc(-n2cc(-c3ccncc3)c(-c3cc(O)cc(Cl)c3)n2)c1)Nc1ccc(Cl)c(C(F)(F)F)c1`, the GI50 is 1.83 µM in test [1]; 1.86 µM in [2]; 2.47 µM in test [3]; 2.08 µM in test [4]; 4.11 µM in [5]; 1.99 µM in test [6]. Further, the GI50 was 1.99 µM in [7], 2.59 µM in [8], 2.25 µM in test [9] and 3.08 µM in test [10]. Besides, the TGI in test [1] turned out to be 4.45 µM; in test [2], 5.85 µM; in test [3], 8.96 µM; in test [4] it was 4.38 µM; in test [5], 30.7 µM; in test [6] it was 5.81 µM. Further, the TGI in test [7] came out at 5.34 µM; in test [8], 7.37 µM; in [9] it was 5.17 µM; in [10], 13.4 µM.
For `O=C(Cn1c(=O)c(-c2ccccc2)nc2ccccc21)Nc1ccc(F)cc1`, the GI50 in test [1] is 75.2 µM; in test [2] it was 99.7 µM; in test [3], > 100 µM; in [4], 67.5 µM; in [5] it was 64.8 µM; in test [7], > 100 µM. For the same molecule, the figures for the GI50 in [8], in [9] and in test [10] were > 100 µM, > 100 µM and 49.8 µM, respectively. The TGI in test [1], in test [2], in test [3], in [4], in test [5] and in [7] was > 100 µM throughout. The TGI in test [8], in test [9] and in [10] was > 100 µM each time.
Regarding `NC(=O)c1ccccc1Nc1ccc2nnc(-c3ccncc3)n2n1`, the GI50 was 10.8 µM in [1]; 9.39 µM in test [2]; 15 µM in test [3]; 7.15 µM in test [4]; 15.4 µM in test [5]; 5.18 µM in test [6]. Also, the GI50 is 4.44 µM in test [8], 11.6 µM in [9] and 9.93 µM in test [10]. The TGI was 23.1 µM in test [1]; 25.6 µM in test [2]; 44.4 µM in test [3]; 22.2 µM in test [4]; 44.4 µM in test [5]; 30.4 µM in test [6]. Moreover, the TGI in test [8] was 16.9 µM; in test [9], 26.7 µM; in [10] it was 22.4 µM.
As for `COc1ccc(-c2nc(/C=N/Nc3cc(C)nc4ccc(Cl)cc34)c(C)o2)cc1`, the GI50 was 1.56 µM in [1]; 2.03 µM in [2]; 2.35 µM in test [3]; 1.8 µM in test [4]; 1.65 µM in test [5]; 1.7 µM in [7]. For the same molecule, the GI50 is 1.85 µM in test [8], 1.63 µM in [9] and 1.64 µM in [10]. The TGI in test [1] was determined as 2.98 µM; in test [2], 3.84 µM; in [3], 5.14 µM; in test [4] it was 3.37 µM; in [5] it was 3.06 µM; in [7], 3.35 µM. Also, the TGI in test [8] turned out to be 3.49 µM; in [9], 3.18 µM; in test [10], 3.12 µM.
With `O=C(Nc1ccncc1)C(=O)c1cn(Cc2ccc(Cl)cc2)c2ccccc12`, the GI50 in test [1] is 0.0533 µM; in [2], 0.179 µM; in [3], 0.276 µM; in [4], 0.0514 µM; in [5] it was 0.199 µM; in test [6] it was 0.064 µM. In addition, the GI50 in test [8] was 0.0585 µM; in test [9], 0.232 µM; in test [10] it was 0.0597 µM. Also, the TGI in test [1], in [2], in test [3], in test [4], in test [5] and in [6] was > 100 µM each time. In addition, the TGI is > 100 µM in test [8], > 22.3 µM in test [9] and > 100 µM in test [10].
With `Cc1cc(C(=C2C=CC(=Nc3ccccc3)C=C2)c2ccc(Nc3ccccc3)cc2)ccc1N`, the GI50 in test [1] was 0.259 µM; in test [2], 0.363 µM; in [3] it was 0.446 µM; in test [4], 0.25 µM; in [5] it was 1.52 µM; in test [7], 0.286 µM. Besides, the GI50 is 0.223 µM in [8] and 0.201 µM in [9]. The TGI came to 0.709 µM in test [1]; 1.34 µM in test [2]; 1.72 µM in test [3]; 0.796 µM in [4]; 2.9 µM in test [5]; 1.04 µM in test [7]. The values for the TGI in test [8] and in test [9] were 0.532 µM and 0.407 µM, respectively.
Turning to `COc1cc2ccccc2oc1=O`, the TGI in test [1], in test [2], in test [3], in test [4], in test [6] and in [7] was > 100 µM each time. Also, the TGI in test [8], in test [9] and in test [10] was > 100 µM in each case.
Regarding `CC(=O)OC[C@]12CC[C@@H](C(=O)CBr)[C@@H]1[C@H]1CC[C@@H]3[C@@]4(C)CCCNC(C)(C)[C@@H]4CC[C@@]3(C)[C@]1(C)CC2`, the GI50 in test [1] is 1.65 µM; in test [2], 3.72 µM; in test [4], 2.11 µM; in test [5], 12.6 µM; in [6], 2.03 µM; in [7] it was 9.2 µM. In addition, the GI50 in test [8] was 7.66 µM; in test [9], 3.92 µM; in [10], 14.3 µM. Also, the TGI in test [1] worked out at 3.27 µM; in test [2] it was 17.9 µM; in [4], 4.71 µM; in test [5], 26.1 µM; in test [6], 5.43 µM; in test [7] it was 23.1 µM. Also, the TGI is 21.8 µM in [8], 17.2 µM in test [9] and 28.2 µM in test [10].
For the molecule `CCOC(=O)c1c2c(n(Cc3ccc(Cl)cc3Cl)c1C)-c1nc[nH]c1C(=O)C2=O`, the GI50 in test [1] was 3.37 µM; in [2], 2.24 µM; in test [3], 14.2 µM; in test [5] it was 19.9 µM; in test [6], 1.8 µM; in test [7] it was 14.2 µM. Besides, the figures for the GI50 in [8], in test [9] and in test [10] were 4.79 µM, 17.4 µM and 16.4 µM, respectively. The TGI in test [1] came to 11.3 µM; in [2], 5.04 µM; in test [3], 31.5 µM; in test [5], 34.2 µM; in test [6], 3.97 µM; in test [7], 27.3 µM. Besides, the TGI in test [8] was 15.9 µM; in test [9], 32.1 µM; in test [10] it was 32.6 µM.

Source of the values: PubChem BioAssay (NCI).
